Source: patent publication US7045515B2, “β-lactam compounds process for reproducing the same and serum cholesterol-lowering agents containing the same” (Kotobuki Pharmaceutical Co., Ltd., priority 2001, dated 2006)

SMILES	melting point [°C]
CCOC(=O)C(C)(C)Oc1ccc(N2C(=O)[C@H](CCCc3ccc(C)cc3)[C@H]2c2ccc(C[C@@H]3O[C@H](CO)[C@@H](O)[C@H](O)[C@H]3O)cc2)cc1 (relative stereo) [Compound 20, 2-{4-[(4S*,3R*)-4-{[(5S,2R,3R,4R,6R)-3,4,5-Trihydroxy-6-(hydroxymethyl)perhydro-2H-pyran-2-yl]methyl}phenyl-3-[3-(4-methylphenyl)propyl]-2-oxoazetidinyl]phenoxy}-2-methylpropionic acid ethyl ester]	76 to 78
Cc1ccc(CCC[C@H]2C(=O)N(c3ccc(OC(C)(C)C(=O)O)cc3)[C@@H]2c2ccc(C[C@@H]3O[C@H](CO)[C@@H](O)[C@H](O)[C@H]3O)cc2)cc1 (relative stereo) [Compound 21, 2-{4-[(4S*,3R*)-4-{[(5S,2R,3R,4R,6R)-3,4,5-Trihydroxy-6-(hydroxymethyl)perhydro-2H-pyran-2-yl]methyl}phenyl-3-[3-(4-methylphenyl)propyl]-2-oxoazetidinyl]phenoxy}-2-methylpropionic acid]	161 to 162
O=C1[C@H](CCCc2ccc(F)cc2)[C@H](c2ccc(CC3O[C@H](CO)[C@@H](O)[C@H](O)[C@H]3O)cc2)N1c1ccc(F)cc1 (relative stereo) [Compound 40, (4R*,3R*)-4-(4-{[(5S,2R,3R,4R,6R)-3,4,5-Trihydroxy-6-(hydroxymethyl)perhydro-2H-pyran-2-yl]methyl}phenyl)-3-[3-(4-fluorophenyl)propyl]-1-(4-fluorophenyl)azetidine-2-one]	78 to 80
O=C1[C@H](CCCc2ccc(F)cc2)[C@@H](c2ccc(CC3O[C@H](CO)[C@@H](O)[C@H](O)[C@H]3O)cc2)N1c1ccc(F)cc1 (stereo in doubt) [Compound 25, (4S,3R)-4-(4-{[(5S,2R,3R,4R,6R)-3,4,5-Trihydroxy-6-(hydroxymethyl)perhydro-2H-pyran-2-yl)methyl}phenyl)-1-(4-fluorophenyl)-3-[3-(4-fluorophenyl)propyl]azetidine-2-one]	67 to 69
O=C1[C@H](CC[C@H](O)c2ccc(F)cc2)[C@@H](c2ccc(C[C@@H]3O[C@H](CO)[C@@H](O)[C@H](O)[C@H]3O)cc2)N1c1ccc(F)cc1 [Compound 22, (4S,3R)-3-[(3S)-3-(4-Fluorophenyl)-3-hydroxypropyl]-4-(4-{[(2S,5S,3R,4R,6R)-3,4,5-trihydroxy-6-(hydroxymethyl)perhydro-2H-pyran-2-yl]methyl}phenyl)-1-(4-fluorophenyl)azetidine-2-one]	115 to 117
O=C(CC[C@H]1C(=O)N(c2ccc(F)cc2)[C@@H]1c1ccc(C[C@@H]2O[C@H](CO)[C@@H](O)[C@H](O)[C@H]2O)cc1)c1ccc(F)cc1 [Compound 26, (4S,3R)-4-(4-{[(2S,5S,3R,4R,6R)-3,4,5-Trihydroxy-6-(hydroxymethyl)perhydro-2H-pyran-2-yl]methyl}phenyl)-1-(4-fluorophenyl)-3-[3-(4-fluorophenyl)-3-oxopropyl]azetidine-2-one]	78 to 80
O=C(CC[C@H]1C(=O)N(c2ccccc2)[C@@H]1c1ccc(C[C@@H]2O[C@H](CO)[C@@H](O)[C@H](O)[C@H]2O)cc1)c1ccc(F)cc1 [Compound 27, (4S,3R)-4-(4-{[(2S,5S,3R,4R,6R)-3,4,5-Trihydroxy-6-(hydroxymethyl)perhydro-2H-pyran-2-yl]methyl}phenyl)-1-phenyl-3-[3-(4-fluorophenyl)-3-oxopropyl]azetidine-2-one]	104 to 106
O=C(O)c1ccc(N2C(=O)[C@H](CC[C@H](O)c3ccc(F)cc3)[C@H]2c2ccc(C[C@@H]3O[C@H](CO)[C@@H](O)[C@H](O)[C@H]3O)cc2)cc1 [Compound 29, 4-[(4S,3R)-3-[(3S)-3-(4-Fluorophenyl)-3-hydroxypropyl]-4-(4-{[(2S,5S,3R,4R,6R)-3,4,5-trihydroxy-6-(hydroxymethyl)perhydro-2H-pyran-2-yl]methyl}phenyl)-2-oxoazetidinyl]benzoic acid]	148 to 150
O=C(O)c1ccc(N2C(=O)[C@H](CCC(=O)c3ccc(F)cc3)[C@H]2c2ccc(C[C@@H]3O[C@H](CO)[C@@H](O)[C@H](O)[C@H]3O)cc2)cc1 [Compound 30, 4-[(4S,3R)-4-(4-{[(2S,5S,3R,4R,6R)-3,4,5-Trihydroxy-6-(hydroxymethyl)perhydro-2H-pyran-2-yl]methyl}phenyl)-3-[3-(4-fluorophenyl)-3-oxopropyl]-2-oxoazetidinyl]benzoic acid]	102 to 104
O=C(O)c1ccc(N2C(=O)[C@H](CCCc3ccc(F)cc3)[C@H]2c2ccc(C[C@@H]3O[C@H](CO)[C@@H](O)[C@H](O)[C@H]3O)cc2)cc1 [Compound 31, 4-[(4S,3R)-4-(4-{[(2S,5S,3R,4R,6R)-3,4,5-Trihydroxy-6-(hydroxymethyl)perhydro-2H-pyran-2-yl]methyl}phenyl)-3-[3-(4-fluorophenyl)propyl]-2-oxoazetidinyl]benzoic acid]	97 to 99
O=C(CC[C@H]1C(=O)N(c2ccc(F)cc2)[C@@H]1c1ccc([C@@H]2O[C@H](CO)[C@@H](O)[C@H](O)[C@H]2O)cc1)c1ccc(F)cc1 [Compound 34]	83 to 85
O=C1[C@H](CC[C@H](O)c2ccc(F)cc2)[C@@H](c2ccc([C@@H]3O[C@H](CO)[C@@H](O)[C@H](O)[C@H]3O)cc2)N1c1ccc(F)cc1 [Compound 35]	81 to 83
Cc1ccc(N2C(=O)[C@H](CC[C@H](O)c3ccc(F)cc3)[C@H]2c2ccc([C@@H]3O[C@H](CO)[C@@H](O)[C@H](O)[C@H]3O)cc2)cc1 [Compound 36]	79 to 81
O=C1[C@H](CC[C@H](O)c2ccccc2)[C@@H](c2ccc(C[C@@H]3O[C@H](CO)[C@@H](O)[C@H](O)[C@H]3O)cc2)N1c1ccccc1 [Compound 41, 3-((3S)-3-Hydroxy-3-phenylpropyl)(4S,3R)-4-(4-{[(2S,5S,3R,4R,6R)-3,4,5-trihydroxy-6-(hydroxymethyl)perhydro-2H-pyran-2-yl]methyl}phenyl)-1-phenylazetidine-2-one]	110 to 112
CCOC(=O)c1ccc(N2C(=O)[C@H](CC[C@H](O)c3ccc(F)cc3)[C@H]2c2ccc(C[C@@H]3O[C@H](CO)[C@@H](O)[C@H](O)[C@H]3O)cc2)cc1 [Compound 42, 4-[3-((3S)-3-(4-Fluorophenyl)-3-hydroxypropyl](4S,3R)-4-(4-{[(2S,5S,3R,4R,6R)-3,4,5-trihydroxy-6-(hydroxymethyl)perhydro-2H-pyran-2-yl]methyl}phenyl)-2-oxoazetidinyl]benzoic acid ethyl ester]	56 to 58
Cc1ccc(N2C(=O)[C@H](CCOc3ccc(F)cc3)[C@H]2c2ccc(C[C@@H]3O[C@H](CO)[C@@H](O)[C@H](O)[C@H]3O)cc2)cc1 [Compound 43, 4-(4-{[(5S,2R,3R,4R,6R)-3,4,5-Trihydroxy-6-(hydroxymethyl)perhydro-2H-pyran-2-yl]methyl}phenyl)(4S,3R)-1-(4-methylphenyl)-3-[3-(4-fluorophenoxy)ethyl]azetidine-2-one]	96 to 98
O=C1[C@H](CCCc2ccccc2)[C@@H](c2ccc(C[C@@H]3O[C@H](CO)[C@@H](O)[C@H](O)[C@H]3O)cc2)N1c1ccccc1 [Compound 44, 3-(3-Phenylpropyl)(4S,3R)-4-(4-{[(5S,3R,4R,6R)-3,4,5-trihydroxy-6-(hydroxymethyl)perhydro-2H-pyran-2-yl]methyl}phenyl)-1-phenylazetidine-2-one]	84 to 86
O=C1[C@H](CC[C@H](O)c2ccc(F)cc2)[C@@H](c2ccc(/C=C/C[C@@H]3O[C@H](CO)[C@@H](O)[C@H](O)[C@H]3O)cc2)N1c1ccc(F)cc1 [Compound 47]	72 to 74
O=C1[C@H](CC[C@H](O)c2ccc(F)cc2)[C@@H](c2ccc(CCC[C@@H]3O[C@H](CO)[C@@H](O)[C@H](O)[C@H]3O)cc2)N1c1ccc(F)cc1 [Compound 48]	81 to 83
O=C1[C@H](CC[C@H](O)c2ccc(F)cc2)[C@@H](c2ccc(CCCOC[C@@H]3O[C@H](CO)[C@@H](O)[C@H](O)[C@H]3O)cc2)N1c1ccc(F)cc1 [Compound 50]	61 to 63
O=C1[C@H](CC[C@H](O)c2ccc(F)cc2)[C@@H](c2ccc(/C=C/COC[C@@H]3O[C@H](CO)[C@@H](O)[C@H](O)[C@H]3O)cc2)N1c1ccc(F)cc1 [Compound 51]	65 to 67
O=C1[C@H](CC[C@H](O)c2ccc(F)cc2)[C@@H](c2ccc(/C=C/CC[C@@H]3O[C@H](CO)[C@@H](O)[C@H](O)[C@H]3O)cc2)N1c1ccc(F)cc1 [Compound 52]	79 to 81
O=C1[C@H](CC[C@H](O)c2ccc(F)cc2)[C@@H](c2ccc(CCCC[C@@H]3O[C@H](CO)[C@@H](O)[C@H](O)[C@H]3O)cc2)N1c1ccc(F)cc1 [Compound 53]	81 to 83
O=C1[C@H](CC[C@H](O)c2ccc(F)cc2)[C@@H](c2ccc(/C=C/CCC[C@@H]3O[C@H](CO)[C@@H](O)[C@H](O)[C@H]3O)cc2)N1c1ccc(F)cc1 [Compound 54]	69 to 71
O=C1[C@H](CC[C@H](O)c2ccc(F)cc2)[C@@H](c2ccc(CCCCC[C@@H]3O[C@H](CO)[C@@H](O)[C@H](O)[C@H]3O)cc2)N1c1ccc(F)cc1 [Compound 55]	66 to 68
O=C(O)[C@H]1O[C@@H](CCc2ccc([C@@H]3[C@@H](CC[C@H](O)c4ccc(F)cc4)C(=O)N3c3ccccc3)cc2)[C@H](O)[C@@H](O)[C@@H]1O [Compound 58]	110 to 112
